How the values were obtained:
[1] = target: T1, Progesterone receptor (Homo sapiens) (UniProt P06401); assay: Percent agonistic effect towards human progesterone receptor in CV-1 cells; type: functional, cell-based
T1 sequence (whole entry): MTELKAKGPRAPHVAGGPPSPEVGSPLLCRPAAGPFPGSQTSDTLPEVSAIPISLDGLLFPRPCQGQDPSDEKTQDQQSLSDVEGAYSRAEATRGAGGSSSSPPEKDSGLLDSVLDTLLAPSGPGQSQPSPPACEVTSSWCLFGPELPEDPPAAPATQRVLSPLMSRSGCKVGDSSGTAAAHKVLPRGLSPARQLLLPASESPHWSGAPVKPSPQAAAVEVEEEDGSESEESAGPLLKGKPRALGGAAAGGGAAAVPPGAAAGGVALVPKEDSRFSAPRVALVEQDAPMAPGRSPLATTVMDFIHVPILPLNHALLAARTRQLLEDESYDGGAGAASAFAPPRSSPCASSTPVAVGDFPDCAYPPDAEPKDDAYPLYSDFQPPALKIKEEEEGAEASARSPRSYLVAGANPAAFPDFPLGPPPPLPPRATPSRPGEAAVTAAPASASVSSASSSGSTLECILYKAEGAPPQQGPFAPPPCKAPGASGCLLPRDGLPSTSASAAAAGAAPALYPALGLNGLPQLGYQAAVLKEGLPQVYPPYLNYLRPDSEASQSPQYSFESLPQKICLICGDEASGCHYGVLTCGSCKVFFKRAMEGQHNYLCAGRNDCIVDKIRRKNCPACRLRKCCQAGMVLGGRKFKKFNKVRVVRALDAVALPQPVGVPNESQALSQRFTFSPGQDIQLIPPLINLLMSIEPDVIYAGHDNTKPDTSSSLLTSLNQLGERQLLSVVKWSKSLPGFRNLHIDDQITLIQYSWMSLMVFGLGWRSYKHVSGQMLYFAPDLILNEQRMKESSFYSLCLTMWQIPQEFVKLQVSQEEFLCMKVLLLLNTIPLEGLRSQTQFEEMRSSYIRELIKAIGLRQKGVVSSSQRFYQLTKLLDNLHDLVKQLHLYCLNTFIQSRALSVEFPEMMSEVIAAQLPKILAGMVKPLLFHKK

Progesterone receptor [2] = target: T2, Progesterone receptor (Homo sapiens, UniProt P06401); assay: Agonistic activity against human progesterone receptor in T47D breast cancer cells; type: functional, cell-based
T2 sequence (P06401 whole entry): T1 sequence (whole entry)

Progesterone receptor [3] = target: T2, Progesterone receptor; assay: Binding affinity towards human progesterone receptor A isoform using progesterone as radioligand
[4] = target: T1, Progesterone receptor (Homo sapiens); assay: Percent agonistic effect towards human progesterone receptor in T47D breast cancer cells; type: functional, cell-based
Progesterone receptor [5] = target: T2, Progesterone receptor; assay: Agonistic activity against human progesterone receptor in CV-1 cells; type: functional, cell-based

Compound	Efficacy [1] [%]	EC50 (Progesterone receptor [2]) [nM]	Ki (Progesterone receptor [3]) [nM]	Efficacy [4] [%]	EC50 (Progesterone receptor [5]) [nM]
CCCc1ccccc1/C=C1\Oc2ccc(F)cc2-c2ccc3c(c21)C(C)=CC(C)(C)N3	123	59	1.6	46	4.5
CC1=CC(C)(C)Nc2ccc3c(c21)/C(=C/c1cccc(F)c1)Oc1c(F)cccc1-3	170	18	5.5	51	2.7
CC1=CC(C)(C)Nc2ccc3c(c21)/C(=C/c1ccncc1)Oc1ccc(F)cc1-3	105	4.9	1.5	49	5.8
CC1=CC(C)(C)Nc2ccc3c(c21)/C(=C/c1ccccn1)Oc1ccc(F)cc1-3	50	44	9.2	40	15
CC1=CC(C)(C)Nc2ccc3c(c21)/C(=C/c1ccccc1C)Oc1ccccc1-3		28		45	
CC1=CC(C)(C)Nc2ccc3c(c21)/C(=C/c1ccc(F)cc1)Oc1c(F)cccc1-3	175	8	0.71	36	4
CC1=CC(C)(C)Nc2ccc3c(c21)/C(=C/c1ccccc1C#N)Oc1ccc(F)cc1-3	78	97	11.4	62	11
CC1=CC(C)(C)Nc2ccc3c(c21)/C(=C/c1ccccc1C=O)Oc1ccc(F)cc1-3	107	48	2.6	72	11
CC1=CC(C)(C)Nc2ccc3c(c21)/C(=C/c1ccccc1C(C)C)Oc1ccc(F)cc1-3	156	54	1.9	43	4

Results, then the molecule that gave them:

Efficacy [1] [%]	EC50 (Progesterone receptor [2]) [nM]	Ki (Progesterone receptor [3]) [nM]	Efficacy [4] [%]	EC50 (Progesterone receptor [5]) [nM]	Compound
147	50	16.4	37	9	CC1=CC(C)(C)Nc2ccc3c(c21)/C(=C/c1ccccc1Br)Oc1ccc(F)cc1-3
146		22.4			CC1=CC(C)(C)Nc2ccc3c(c21)/C(=C/c1ccccc1Cl)Oc1ccc(F)cc1-3
190	29	0.62	47		CC1=CC(C)(C)Nc2ccc3c(c21)/C(=C/c1ccccc1F)Oc1ccc(F)cc1-3
127	161	45.5	56	14	CC1=CC(C)(C)Nc2ccc3c(c21)/C(=C/c1ccccc1C(F)(F)F)Oc1ccc(F)cc1-3
136	190	6.4	56	11	CC1=CC(C)(C)Nc2ccc3c(c21)/C(=C/c1ccccc1OC(F)(F)F)Oc1ccc(F)cc1-3

From ChEMBL document CHEMBL1145087 (J Med Chem, 2003)
